From patent US20260055088A1, “HETEROCYCLIC COMPOUND, METHOD FOR PREPARING SAME, AND PHARMACEUTICAL USE THEREOF” (Jiangsu Hengrui Pharmaceuticals Co., Ltd., priority 2022, published 2026)

Experiments:
[1] = Pharmacokinetic evaluation in SD rats (i.g.); assay type: in vivo; conditions: male, Sprague-Dawley (SD), rat, plasma, po, 50 mg/kg
Description: SD rats were used as test animals. After intragastric (i.g.) administration of the example compounds to SD rats, the plasma concentrations of the compounds at different time points were determined by the LC/MS/MS method. The pharmacokinetic behaviors of the compounds of the present disclosure in SD rats were studied, and their pharmacokinetic profiles were evaluated.
Compounds 16 and 32: Four male SD rats, provided by Vital River Laboratory Animal Technology Co., Ltd. The animals were fasted overnight and then intragastrically dosed.
Compound 38: Two male SD rats, provided by Zhejiang Vital River Laboratory Animal Technology Co., Ltd. The animals were fasted overnight and then intragastrically dosed.
Compounds 16 and 32: Certain amounts of the test compounds were weighed out, and 5% DMSO+5% tween 80+90% normal saline was added to prepare 0.2 mg/mL colorless clear solutions.
Compound 38: A certain amount of the test compound was weighed out, and 25% PEG400+75% (10% TPGS+1% HPMC K100LV) was added to prepare a 5 mg/mL colorless clear solution.
Compounds 16 and 32: The administration dose was 2 mg/kg, and the administration volume was 10.0 mL/kg.
Compound 38: The administration dose was 50 mg/kg, and the administration volume was 10.0 mL/kg.
(§1) 0.2-mL blood samples were collected from the orbit before administration and 0.25, 0.5, 1.0, 2.0, 4.0, 6.0, 8.0, 11.0, and 24.0 h after administration, placed into EDTA-K2 anticoagulation test tubes, and centrifuged at 10,000 rpm for 1 min (4° C.), and the plasma was separated within 1 h and stored with dry ice before analysis. The procedures from the blood collection to the centrifugation were performed under ice-bath conditions. Access to food was given 2 h after administration.
Compounds 16 and 32: Determination of the plasma concentrations of the test compounds in SD rats after the compounds were administered at different concentrations: A 25-μL sample of the SD rat plasma collected at each time point after administration was taken, and 200 μL of acetonitrile containing an internal standard (verapamil, 100 ng/mL) was added. The mixture was vortexed and centrifuged at 3700 rpm for 10 min. 0.1 μL of the supernatant was taken for LC/MS/MS analysis.
Compound 38: Determination of the plasma concentration of the test compound in SD rats after the compound was administered at different concentrations: A 25-μL sample of the SD rat plasma collected at each time point after administration was taken, and 200 μL of acetonitrile containing an internal standard (dexamethasone, 100 ng/mL) was added. The mixture was vortexed and centrifuged at 4000 rpm for 15 min. 1 μL of the supernatant was taken for LC/MS/MS analysis.

[2] = Pharmacokinetic evaluation in CD-1 mice (i.g.); assay type: in vivo; conditions: male, mouse, plasma, po, 100 mg/kg
Description: CD-1 mice were used as test animals. After intragastric (i.g.) administration of the compound of the present disclosure to CD-1 mice, the plasma concentrations of the compound at different time points were determined by the LC/MS/MS method. The pharmacokinetic behavior of the compound of the present disclosure in CD-1 mice was studied, and its pharmacokinetic profile was evaluated.
Nine male CD-1 mice (3 mice per time point), provided by Vital River Laboratory Animal Technology Co., Ltd. (license: SCXK (Zhejiang) 2019-0001). The mice were intragastrically dosed.
A certain amount of the test compound was weighed out, and 25% PEG400+75% (10% TPGS+1% HPMC K100LV) was added to prepare a 10 mg/mL yellowish suspension.
The administration dose was 100 mg/kg, and the administration volume was 10 mL/kg.
as §1, with “The intragastric administration groups: 0.1-mL” for “0.2-mL”, “at −80° C.” for “with dry ice”, “conditions.” for “conditions. Access to food was given 2 h after administration.”
Determination of the plasma concentration of the test compound in CD-1 mice after the compound was administered at different concentrations: A 20-μL sample of the CD-1 mouse plasma collected at each time point after administration was taken, and 200 μL of acetonitrile containing an internal standard (dexamethasone, 100 ng/mL) was added to each sample to precipitate protein. The mixture was vortexed for 5 min and centrifuged at 4000 rpm for 15 min. 40 μL of the supernatant was taken, and 120 μL of water was added. The mixture was vortexed for 5 min, and 0.5 μL of the mixture was taken for LC/MS/MS analysis.

[3] = biological target: Nav1.8 ion channel stably expressed on HEK293 cells (Homo sapiens (Human), UniProt Q9Y5Y9); assay: Inhibitory activity against Nav1.8, manual patch clamp; assay type: cell-based; conditions: resting protocol (-80 mV to 10 mV), 1 μM TTX, read-out: IC50 for the inhibition of Nav1.8 channel activity
Excerpt: The objective of the experiment was to investigate the effects of the compounds on the Nav1.8 ion channel in ex vivo experiments. The Nav1.8 ion channel is stably expressed on HEK293 cells. After the Nav1.8 current stabilized, the effects of the compounds on the Nav1.8 ion channel were obtained by comparing the magnitudes of the Nav1.8 currents before and after the compounds were applied.
• 1) A patch clamp amplifier: patch clamp PC-505B (WARNER instruments)/MultiClamp 700A (Axon instrument) • 2) A digital-to-analog converter: Digidata 1440A (Axon CNS)/Digidata 1550A (Axon instruments) • 3) A micromanipulator: MP-225 (SUTTER instrument) • 4) An inverted microscope: TL4 (Olympus) • 5) Glass micropipette puller: PC-10 (NARISHIGE) • 6) Microelectrode glass capillaries: B12024F (Wuhan VitalSense Scientific Instruments Co., Ltd.) • 7) Dimethyl sulfoxide (DMSO) D2650 (Sigma-Aldrich) • 8) TTX AF3014 (Affix Scientific)
The compounds for preparing the intracellular and extracellular fluids were purchased from Sigma (St. Louis, MO) except for the NaOH and KOH for the acid-base titrations. The extracellular fluid (mM) was: NaCl, 137; KCl, 4; CaCl2, 1.8; MgCl2, 1; HEPES, 10; glucose, 10; pH 7.4 (NaOH titration). The intracellular fluid (mM) was: aspartic acid, 140; MgCl2, 2; EGTA, 11; HEPES, 10; pH 7.2 (CsOH titration). All test and control compound solutions contained 1 μM TTX.
The test compounds were stored at a concentration of 9 mM in dimethyl sulfoxide (DMSO). On the testing day, the compounds were further dissolved in the extracellular fluid to prepare the required concentrations.
1) After the compounds were prepared into solutions with specified concentrations, the compound solutions were sequentially added to channels in ascending order according to their concentrations, and each channel was labeled.
2) A cell was transferred to the perfusion chamber. Positive pressure was applied inside the electrode, and the electrode tip was brought into contact with the cell. The three-way valve of the suction device was switched to the state where all three ways were open, and negative pressure was then applied to the electrode, allowing a high-resistance seal to form between the electrode and the cell. The application of negative pressure was continued to rupture the cell membrane, leading to the formation of a current pathway.
3) After the cell membrane rupture current stabilized, perfusion was performed with different concentrations in sequence. If the current remained stable for at least one minute, perfusion was performed with the next concentration.
4) The perfusion chamber was cleaned. The perfusion chamber was rinsed with the compound solutions in descending order according to their concentrations, with each concentration applied for 20 s. Finally, the perfusion chamber was rinsed with the extracellular fluid for 1 min.
The cell was clamped at −80 mV and then depolarized to 10 mV using a square wave lasting for 10 ms to obtain a Nav1.8 current. This procedure was repeated once every 5 seconds. The maximum current induced by the square wave was detected. After the current stabilized, perfusion was performed with the test compounds. After the reaction stabilized, the strength of the blocking was calculated.
The data were stored on a computer system and analyzed. Data acquisition and analysis were performed using pCLAMP 10 (Molecular Devices, Union City, CA), and the results were reviewed by a manager. “Current stabilized” means that the changes in current over time were within a limited range. The magnitude of the current after stabilization was used to calculate the effect of the compound at this […].
The inhibitory activity of the compounds of the present disclosure against Nav1.8 was determined through the above assay.

[4] = Pharmacokinetic evaluation in dogs (i.g.); assay type: in vivo; conditions: both sexes, dog, plasma, po, 2 mg/kg
Description: Dogs were used as test animals. After intragastric (i.g.) administration of the example compound to dogs, the plasma concentrations of the compound at different time points were determined by the LC/MS/MS method. The pharmacokinetic behavior of the compound of the present disclosure in dogs was studied, and its pharmacokinetic profile was evaluated.
The compound of Example 43.
Four dogs, with an equal number of males and females, provided by Weifang Shengnuo Laboratory Animal Breeding Co., Ltd (license: SCXK (Beijing) 2020-0009) and Beijing Institute of Xieerxin Biology Resource Co., Ltd (license: SCXK (Shandong) 20230001). The animals were fasted overnight and then intragastrically dosed.
A certain amount of the example compound was weighed out, and 5% DMSO+20% PG+20% PEG400+55% normal saline was added to prepare a […] colorless clear solution.
The administration dose was 2 mg/kg, and the administration volume was 10.0 mL/kg.
as §1, with “0.5-mL” for “0.2-mL”, “a forelimb vein” for “the orbit”, “11.0, 24.0, 48.0,” for “11.0,”, “72” for “24.0”
Determination of the plasma concentration of the test compound in dogs after the compound was administered at different concentrations: A 50-μL sample of the dog plasma collected at each time point after administration was taken, and 250 μL of acetonitrile containing an internal standard (labetalol, 1 μg/mL) was added. The mixture was vortexed and centrifuged at 3700 rpm for 10 min. 0.5 μL of the supernatant was taken for LC/MS/MS analysis.

[5] = read-out: Area under curve AUC0-t
[6] = read-out: Half-life T½ (converted)
[7] = read-out: Plasma concentration Cmax

| SMILES | AUC(0-t) [1, 5] [µg·h/mL] | CL/F ([1]; read-out: Clearance rate CL/F) [L/h/kg] | half-life [1, 6] [h] | Cmax [1, 7] [µg/mL] | AUC(0-t) [2, 5] [µg·h/mL] | CL/F ([2]; read-out: Clearance rate CL/F) [L/h/kg] | half-life [2, 6] [h] | Cmax [2, 7] [µg/mL] | IC50 [3] [nM] | AUC(0-t) [4, 5] [µg·h/mL] | CL/F ([4]; read-out: Clearance rate CL/F) [L/h/kg] | half-life [4, 6] [h] | Cmax [4, 7] [µg/mL] |
| --- | --- | --- | --- | --- | --- | --- | --- | --- | --- | --- | --- | --- | --- |
| COc1c([C@H]2[C@H](C(=O)Nc3ccnc(C4(N)CC4)c3)O[C@@](C)(C(F)(F)F)[C@H]2C)ccc(F)c1F [Example 38, (2R,3S,4S,5R)—N-(2-(1-Aminocyclopropyl)pyridin-4-yl)-3-(3,4-difluoro-2-methoxyphenyl)-4,5-dimethyl-5-(trifluoromethyl)tetrahydrofuran-2-carboxamide] | 18.4 | 2.52 | 5.84 | 1.45 | 76.7 | 1.22 | 5.8 | 6.28 | 2.2 | – | – | – | – |
| COc1c([C@H]2[C@H](C(=O)Nc3cc[n+]([O-])c(/C(N)=N/O)c3)O[C@@](C)(C(F)(F)F)[C@H]2C)ccc(F)c1F [Example 43, 4-((2R,3S,4S,5R)-3-(3,4-Difluoro-2-methoxyphenyl)-4,5-dimethyl-5-(trifluoromethyl)tetrahydrofuran-2-carboxamido)-2-((Z)—N′-hydroxycarbamimidoyl)pyridine 1-oxide] | – | – | – | – | – | – | – | – | 0.3 | 250 | 0.00768 | 34.5 | 5.67 |
| CO/N=C(\N)c1cc(NC(=O)[C@@H]2O[C@@](C)(C(F)(F)F)[C@@H](C)[C@H]2c2ccc(F)c(F)c2OC)cc[n+]1[O-] [Example 44, 4-((2R,3S,4S,5R)-3-(3,4-Difluoro-2-methoxyphenyl)-4,5-dimethyl-5-(trifluoromethyl)tetrahydrofuran-2-carboxamido)-2-((Z)—N′-methoxycarbamimidoyl)pyridine 1-oxide] | – | – | – | – | – | – | – | – | 0.53 | – | – | – | – |
